Measurements reported in ChEMBL document CHEMBL2203177, “Tuning the activity of a short arg-trp antimicrobial Peptide by lipidation of a C- or N-terminal lysine side-chain” (ACS Med Chem Lett, 2012).
Converted amounts (≈) assume the structure as drawn. Peptide text beside a SMILES is read from it. * marks the point of attachment. Myristoyl = CCCCCCCCCCCCCC(=O)*; Lauroyl = CCCCCCCCCCCC(=O)*; Decanoyl = CCCCCCCCCC(=O)*; Hexanoyl = CCCCCC(=O)*

Assays:
[1] = test system: Staphylococcus aureus; test: Antibacterial activity against Staphylococcus aureus DSM 20231 assessed as growth inhibition after 18 hrs; format: functional; conditions: DSM 20231, 18 h
[2] = test system: Pseudomonas aeruginosa; test: Antibacterial activity against Pseudomonas aeruginosa DSM 50071 assessed as growth inhibition after 18 hrs; format: functional; conditions: DSM 50071, 18 h
[3] = test system: Escherichia coli; test: Antibacterial activity against Escherichia coli DSM 30083 assessed as growth inhibition after 18 hrs; format: functional; conditions: DSM 30083, 18 h
[4] = test system: Acinetobacter baumannii; test: Antibacterial activity against Acinetobacter baumannii DSM 30007 assessed as growth inhibition after 18 hrs; format: functional; conditions: DSM 30007, 18 h
[5] = test system: Staphylococcus aureus; test: Antibacterial activity against Staphylococcus aureus ATCC 43300 assessed as growth inhibition after 18 hrs; format: functional; conditions: ATCC 43300, 18 h
[6] = test system: Bacillus subtilis; test: Bactericidal activity against Bacillus subtilis 168 (trpC2)2 assessed as survival rate at twice MIC concentration incubated for 15 mins measured after 18 hrs; format: functional, subsp. subtilis str. 168 (trpC2)2
[7] = test system: Bacillus subtilis; test: Antibacterial activity against Bacillus subtilis 168 DSM 402 assessed as growth inhibition after 18 hrs; format: functional; conditions: subsp. subtilis str. 168 DSM 402, 18 h
[8] = Hemolytic activity against human RBC assessed as hemoglobin leakage at 250 ug/ml; format: ADME, cell-based, Erythrocyte; conditions: human red blood cells, read-out: Activity

Row | Structure (SMILES) | MIC [1] [µM] | MIC [2] [µM] | MIC [3] [µM] | MIC [4] [µM] | MIC [5] [µM] | Survival [6] [%] | MIC [7] [µM] | hemolysis at 250 ug/ml [8] [%]
1 | CCCCCC(=O)NCCCC[C@H](NC(=O)[C@H](Cc1c[nH]c2ccccc12)NC(=O)[C@H](CCCNC(=N)N)NC(=O)[C@H](Cc1c[nH]c2ccccc12)NC(=O)[C@H](CCCNC(=N)N)NC(=O)[C@H](Cc1c[nH]c2ccccc12)NC(=O)[C@@H](N)CCCNC(=N)N)C(N)=O (H-RWRWRWK(Hexanoyl)-NH2) | 18 (≈ 22.9 µg/mL) | 74 (≈ 94 µg/mL) | 19 (≈ 24.1 µg/mL) | 19 (≈ 24.1 µg/mL) | 9 (≈ 11.4 µg/mL) | 0.687 | 2 (≈ 2.54 µg/mL) | < 10
2 | N=C(N)NCCC[C@H](NC(=O)[C@H](Cc1c[nH]c2ccccc12)NC(=O)[C@H](CCCNC(=N)N)NC(=O)[C@H](Cc1c[nH]c2ccccc12)NC(=O)[C@H](CCCNC(=N)N)NC(=O)[C@@H](N)CCCCN)C(=O)N[C@@H](Cc1c[nH]c2ccccc12)C(N)=O (H-KRWRWRW-NH2) | 37 (≈ 43.4 µg/mL) | > 100 | 18 (≈ 21.1 µg/mL) | > 100 | 9 (≈ 10.6 µg/mL) | 7 | 2 (≈ 2.34 µg/mL) | < 10
3 | CCCCCCCCCCCCCC(=O)NCCCC[C@H](N)C(=O)N[C@@H](CCCNC(=N)N)C(=O)N[C@@H](Cc1c[nH]c2ccccc12)C(=O)N[C@@H](CCCNC(=N)N)C(=O)N[C@@H](Cc1c[nH]c2ccccc12)C(=O)N[C@@H](CCCNC(=N)N)C(=O)N[C@@H](Cc1c[nH]c2ccccc12)C(N)=O (H-K(Myristoyl)RWRWRW-NH2) | 9 (≈ 12.4 µg/mL) | > 100 | 35 (≈ 48.4 µg/mL) | 35 (≈ 48.4 µg/mL) | 17 (≈ 23.5 µg/mL) | 0.033 | 9 (≈ 12.4 µg/mL) | > 50
4 | CCCCCC(=O)NCCCC[C@H](N)C(=O)N[C@@H](CCCNC(=N)N)C(=O)N[C@@H](Cc1c[nH]c2ccccc12)C(=O)N[C@@H](CCCNC(=N)N)C(=O)N[C@@H](Cc1c[nH]c2ccccc12)C(=O)N[C@@H](CCCNC(=N)N)C(=O)N[C@@H](Cc1c[nH]c2ccccc12)C(N)=O (H-K(Hexanoyl)RWRWRW-NH2) | 5 (≈ 6.35 µg/mL) | 37 (≈ 47 µg/mL) | 9 (≈ 11.4 µg/mL) | 9 (≈ 11.4 µg/mL) | 5 (≈ 6.35 µg/mL) | 0.211 | 0.6 (≈ 0.762 µg/mL) | < 10
5 | CCCCCCCCCC(=O)NCCCC[C@H](NC(=O)[C@H](Cc1c[nH]c2ccccc12)NC(=O)[C@H](CCCNC(=N)N)NC(=O)[C@H](Cc1c[nH]c2ccccc12)NC(=O)[C@H](CCCNC(=N)N)NC(=O)[C@H](Cc1c[nH]c2ccccc12)NC(=O)[C@@H](N)CCCNC(=N)N)C(N)=O (H-RWRWRWK(Decanoyl)-NH2) | 1 (≈ 1.33 µg/mL) | 9 (≈ 11.9 µg/mL) | 2 (≈ 2.65 µg/mL) | 5 (≈ 6.63 µg/mL) | 1 (≈ 1.33 µg/mL) | 0.053 | 0.6 (≈ 0.796 µg/mL) | 50
6 | CCCCCCCCCCCC(=O)NCCCC[C@H](N)C(=O)N[C@@H](CCCNC(=N)N)C(=O)N[C@@H](Cc1c[nH]c2ccccc12)C(=O)N[C@@H](CCCNC(=N)N)C(=O)N[C@@H](Cc1c[nH]c2ccccc12)C(=O)N[C@@H](CCCNC(=N)N)C(=O)N[C@@H](Cc1c[nH]c2ccccc12)C(N)=O (H-K(Lauroyl)RWRWRW-NH2) | 4 (≈ 5.42 µg/mL) | > 100 | 9 (≈ 12.2 µg/mL) | 18 (≈ 24.4 µg/mL) | 2 (≈ 2.71 µg/mL) | 0.011 | 9 (≈ 12.2 µg/mL) | > 50
7 | CCCCCCCCCCCC(=O)NCCCC[C@H](NC(=O)[C@H](Cc1c[nH]c2ccccc12)NC(=O)[C@H](CCCNC(=N)N)NC(=O)[C@H](Cc1c[nH]c2ccccc12)NC(=O)[C@H](CCCNC(=N)N)NC(=O)[C@H](Cc1c[nH]c2ccccc12)NC(=O)[C@@H](N)CCCNC(=N)N)C(N)=O (H-RWRWRWK(Lauroyl)-NH2) | 1 (≈ 1.35 µg/mL) | 18 (≈ 24.4 µg/mL) | 4 (≈ 5.42 µg/mL) | 9 (≈ 12.2 µg/mL) | 1 (≈ 1.35 µg/mL) | 0.004 | 1 (≈ 1.35 µg/mL) | > 50
